# Assay results: US7687476B2, “Specific inhibitors of acute and chronic inflammation” (priority 2001, dated 2010)
# Entries after “also recorded” stand apart in the source; their conditions may differ.
# Key:
# [1] = system: L-cells transfected with E-selectin; assay: static adhesion of neutrophils to L-cells transfected with E-selectin (myeloperoxidase readout); assay type: cell-based, human; details: for adhesion of neutrophils to E-selectin transfected L-cells: preincubation 45 min, adhesion 20 min at 37° C., static assay; for order of potency of lead compounds: proposed from the adhesion experiments
# Experimental: L-cells permanently transfected with full-length E-selectin by electroporation. Human neutrophils were isolated from EDTA whole blood by density centrifugation. Purity and total number were determined by standard haematology instruments, L-cells were grown in 96-well microtiter plates.
# L-cells and neutrophils were pre-incubated with respective substances for 45 min at 37° C. Neutrophils were then allowed to adhere to L-cells in the presence of different substances for 20 min at 37° C. Non-adherent cells were removed by repeated washings and the number of adherent cells determined by measuring myeloperoxidase content. Since binding of neutrophils to selectin is calcium dependent, EGTA (which chelates calcium) was used as a negative control.
# L-cells and neutrophils were preincubated with decreasing concentrations of maltose, fucose, and thymidine (1 mM, 10 μM, 0.1 μM, and 1 nM) for 45 min at 37° C. Neutrophils were then allowed to adhere to L-cells in the presence of respective substances for 20 min at 37° C. Non-adherent cells were removed by repeated washings and the number of adherent cells determined by measuring myeloperoxidase content.
# L-cells were grown in 96-well microtiter plates. L-cells and neutrophils were preincubated with decreasing concentrations of EGTA (10 mM, 1 mM, 0.1 mM, 10 μM) for 45 min at 37° C. Neutrophils were then allowed to adhere to L-cells in the presence of EGTA for 20 min at 37° C. Non-adherent cells were removed by repeated washings and the number of adherent cells was determined by measuring myeloperoxidase content.
# [2] = system: Colo 201 cells / L-cells transfected with E-selectin; assay: adhesion of colon cancer cells Colo 201 to L-cells transfected with E-selectin; assay type: cell-based; details: E-selectin transfected L-cells (text of b26 says HUVEC)
# Experimental: Although protein ligands have been characterised for the selectins, they recognise a number of carbohydrate and non-carbohydrate ligands. The hypothesis is that these compounds should block E-selectin-SLe^x interaction. To confirm this it was also tested if these substances can block adhesion of Colo 201 cells to L-cells.
# [3] = system: TNF stimulated HUVEC; assay: neutrophil adhesion to TNF stimulated HUVEC; assay type: cell-based, human; details: for adhesion of neutrophils to TNF stimulated / activated HUVEC (in words) / inhibition of adhesion of neutrophils to TNF stimulated HUVEC: HUVEC stimulated with TNF 4 h; for inhibition of adhesion of neutrophils to TNF stimulated HUVEC: neutrophils preincubated 30 min at 37° C.
# Experimental: To further extend the finding from L-cells the binding of neutrophils to TNF activated endothelium (HUVEC) was studied.
# Endothelial cells were grown in 96-well microtiter plates to confluence. They were stimulated with TNF for 4 h at 37° C. Isolated neutrophils were incubated for 30 min at 37° C. with respective substances. The endothelial cells were washed after 4 h and 2×10^5 neutrophils were added to each well and the cells were allowed to adhere in the presence of the respective substances.
# [4] = biological target: T1, myeloperoxidase (Homo sapiens, UniProt P05164); assay: effect on neutrophil myeloperoxidase activity; assay type: cell-based; details: neutrophils, 100 μM to 10 nM, 2 hours at 37° C.
# T1 construct: endogenous in cells; host or cells: human neutrophils isolated from EDTA whole blood
# Experimental: Since the number of adherent neutrophils are calculated by measuring neutrophil myeloperoxidase activity, it could be argued that these substances could have a direct effect on myeloperoxidase activity and thus create a methodological artifact. Neutrophils were incubated with different concentrations of uridine, isomaltitol, and 4-thiouridine (100 μM, 10 μM, 1 μM, 100 nM, 10 nM) for 2 hours at 37° C.
# [5] = system: E-selectin; assay: cell-ELISA of surface expression of E-selectin on stimulated endothelial cells; assay type: cell-based, human; details: simultaneous incubation of endothelium with different concentrations, 4 h at 37° C.
# Experimental: The substances mentioned above should block the interaction of E-selectin with it's ligand and should not have any effect on cytokine induced up-regulation of adhesion molecules. A cell-ELISA was performed to assess the surface expression of adhesion molecules. Endothelial cells were grown in microtiter plates, stimulated with TNF or IL-1 with or without respective substances for 4 h at 37° C. After stimulation the cells were washed and fixed with formaldehyde. A cell-ELISA was performed in analogy to regular ELISA using primary and secondary antibodies.
# T1 sequence (P05164 279-745 limits assumed): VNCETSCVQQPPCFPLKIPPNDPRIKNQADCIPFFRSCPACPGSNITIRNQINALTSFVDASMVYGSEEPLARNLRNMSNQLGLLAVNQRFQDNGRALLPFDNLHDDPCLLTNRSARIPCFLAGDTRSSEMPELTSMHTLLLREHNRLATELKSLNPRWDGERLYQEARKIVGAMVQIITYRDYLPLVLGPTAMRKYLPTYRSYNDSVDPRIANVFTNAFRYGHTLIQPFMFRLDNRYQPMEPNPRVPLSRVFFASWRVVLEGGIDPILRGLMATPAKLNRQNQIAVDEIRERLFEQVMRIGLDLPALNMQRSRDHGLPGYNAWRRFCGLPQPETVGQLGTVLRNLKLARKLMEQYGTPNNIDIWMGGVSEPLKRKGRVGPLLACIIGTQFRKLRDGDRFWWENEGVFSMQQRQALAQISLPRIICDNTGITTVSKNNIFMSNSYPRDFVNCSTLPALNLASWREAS
# T1 sequence (P05164 165-273 limits assumed): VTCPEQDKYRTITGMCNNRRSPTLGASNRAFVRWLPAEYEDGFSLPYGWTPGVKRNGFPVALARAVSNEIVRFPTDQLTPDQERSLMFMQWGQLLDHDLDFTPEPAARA
myeloperoxidase activity [4],Compound,adhesion of neutrophils to E-selectin transfected L-cells [1],adhesion of Colo 201 cells [2],adhesion of neutrophils to TNF stimulated / activated HUVEC (in words) [3],order of potency of lead compounds [1],inhibition of adhesion of neutrophils to TNF stimulated HUVEC [3],TNF induced up-regulation of E-selectin [5],concentration level at which the maximal effect on neutrophil adhesion to HUVEC occurs ([3]; TNF stimulated HUVEC)
,"O=C(O)CN(CCOCCOCCN(CC(=O)O)CC(=O)O)CC(=O)O [EGTA, reference compound]",consistently blocks adhesion of neutrophils; also recorded: dose dependent inhibition of neutrophils adhesion to L-cells,blocked adhesion of Colo 201 cells,blocked adhesion of neutrophils; also recorded: dose dependent inhibition of neutrophils adhesion to activated HUVEC,,,,
,"Cc1cn([C@H]2C[C@H](O)[C@@H](CO)O2)c(=O)[nH]c1=O [thymidine, reference compound]",did not affect the adhesion of neutrophils,,,,,,
do not affect myeloperoxidase activity,OC[C@H](O)[C@@H](O)[C@H](O)[C@H](O)CO[C@H]1O[C@H](CO)[C@@H](O)[C@H](O)[C@H]1O [isomaltitol],could block adhesion of neutrophils,,,4-thiouridine>isomaltitol>uridine,roughly 30%,,
,"OC[C@H]1O[C@H](O[C@H]2[C@H](O)[C@@H](O)C(O)O[C@@H]2CO)[C@H](O)[C@@H](O)[C@@H]1O (mixture of isomers) [Maltose, maltose, reference compound]",did not affect the adhesion of neutrophils,,,,,,
do not affect myeloperoxidase activity,O=c1[nH]c(=S)ccn1[C@@H]1O[C@H](CO)[C@@H](O)[C@H]1O [4-thiouridine],could block adhesion of neutrophils,,dose dependent inhibition,4-thiouridine>isomaltitol>uridine,60%,did not affect TNF induced up-regulation of E-selectin,micromolar levels
,"C[C@H](O)[C@@H](O)[C@@H](O)[C@H](O)C=O [fucose, reference compound]",did not affect the adhesion of neutrophils,,,,,,
do not affect myeloperoxidase activity,O=c1ccn([C@@H]2O[C@H](CO)[C@@H](O)[C@H]2O)c(=O)[nH]1 [uridine],could block adhesion of neutrophils,,,4-thiouridine>isomaltitol>uridine,,,
